# Test results reported in patent US20200239398A1, “METHYLENE-CYCLOALKYLACETATE DERIVATIVES AND THEIR USE IN TREATMENT OF NEUROTROPIC CONDITIONS” (Yissum Research Development Company of The Hebrew …, priority 2018, published 2020).
# Read-outs that look alike come from different tables or passages of the source.
# Experiments:
# PC12 cells = assay: PC12 cell neurotropic assay (neurite outgrowth); format: cell-based, rat; conditions: 10 μM
# Protocol: PC12 cells were grown in T-200 flasks in high glucose (4.5 gr/L) DMEM medium supplemented with 7% FCS, 7% horse serum and 1% penicillin and streptomycin. Cells were incubated at 37° C. in a humidified incubator containing 6% CO2. All experiments were carried out in a clean room, according to ISO7 requirements (10,000 particles/m^3).
# Tissue culture Falcon plates were coated with 200 μg/ml collagen type 1 and placed under UV light for 30 minutes for sterilization. Thereafter, one ml of PC12 cell suspension (5000 cells/well) was applied in 12 or 24 well plate, respectively. The cultures were grown in the incubator two days before exposure to investigated compound.
# This experimental procedure contained two controls. The first consisted of untreated cells (negative control), representing the random effect: “noise signal”—the ability of cells to spontaneously grow neurite outgrowth which in seven days are of a length less than two-fold cell diameter. Also, negative controls consisted of cultures treated with 1% DMSO, solvent used to solubilize all compounds. The positive control consisted of cells treated with 50 ng/ml NGF, indicating maximal neurite outgrowth that can be achieved in this model. The experimental group consisted of PC12 cells treated with synthetic compounds. In each experiment, after two and seven days, six cultures were evaluated for neurotropic effect. These consecutive observations allow measurement of the progress of neurite outgrowth elongation and the percentage of cells with neurites.^31
# In order to assess neurotropic effect, the neurite outgrowth length in each culture was quantified. For this purpose, each culture was placed under an inverted microscope and photographed by the attached camera. Each well was photographed at three to five representative areas. After acquiring the photos, they were analyzed by ImageJ, NIH software. The neurite outgrowth was estimated by fractal dimension (Df), a statistical parameter that describes the fractional space (area and length) filled by neurite outgrowth. Df ranged from 0 to 1.20. This method estimates the amount of picsel covered by neurites/cells compared to empty space per square field, and therefore plotting log (number of square boxes) vs. log (size in pixels) relationship generates a linear curve with Df representing the slope of the curve. Every photograph that was taken, was opened in a Photoshop software and a new layer was generated on it. Using a 5-pixel wide digital pencil tool, all the outgrowths were marked and the layer with the markers (outgrowth network) was saved in a 0-255 gray scale as described in FIG. 2. Then, the saved layer was opened by ImageJ NIH software. The software “skeletonized” the layer, measured the length and complexity of every outgrowth in a fractal box count and calculated the fractional dimension parameter (Df).^32
# Each experiment was performed in duplicates and repeated three to four times (n=6-8). By using SPSS software, one way ANOVA was performed for the fractional dimension of each compound, in order to evaluate the neurotropic effect. In case of significance, Bonferroni post-hoc analysis was performed. The results were considered significant when p<0.05.
# male C57BL/6 mice = assay: Blood analysis 24 hours after injection; format: in vivo
# Protocol: Tail vein blood samples were taken from DMSO 1% treated control (n=3) and HU-MCA-13-injected mice (n=4) after 24 hours from injection and submitted for hematocrit cell counting and biochemical analysis. Blood analyses are depicted in FIG. 4. No difference in any assay (blood count, electrolytes, coagulation parameters) was noted between the DMSO and HU-MCA-13-injected mice. Of special importance are normal liver (ALP, AST, ALT) functions and normal kidney (creatinine and blood urea nitrogen) functions, indicating sufficient organ integrity at the end of the experimental period.
# [1] = molecular target: Adrenergic Receptor α1A (ADRA1A) (Homo sapiens, UniProt P35348); assay: SAFETYscan ADRA1A Calcium Flux; format: cell-based; conditions: 10 μM HU-MCA-13, read-out: Maximal Response
# [2] = molecular target: Adrenergic Receptor β2 (ADRB2) (Homo sapiens, UniProt P07550); assay: SAFETYscan ADRB2 cAMP; format: cell-based; conditions: 10 μM HU-MCA-13, read-out: Maximal Response
# [3] = molecular target: Cannabinoid Receptor 1 (CNR1) (Homo sapiens, UniProt P21554); assay: SAFETYscan CNR1 cAMP; format: cell-based; conditions: 10 μM HU-MCA-13; for Emax: read-out: Maximal Response
# [4] = molecular target: Cannabinoid Receptor 2 (CNR2) (Homo sapiens, UniProt P34972); assay: SAFETYscan CNR2 cAMP; format: cell-based; conditions: 10 μM HU-MCA-13; for Emax: read-out: Maximal Response
# [5] = molecular target: Histamine Receptor H2 (HRH2) (Homo sapiens, UniProt P25021); assay: SAFETYscan HRH2 cAMP; format: cell-based; conditions: 10 μM HU-MCA-13; for Emax: read-out: Maximal Response
# [6] = molecular target: T1, Kv7.1/KCNE Potassium voltage-gated channel (KvLQT1/minK) (Homo sapiens, UniProt P51787); assay: SAFETYscan KvLQT1/minK Ion channel; format: cell-based; conditions: 10 μM HU-MCA-13, read-out: Maximal Response
# T1 construct: DiscoverX (SAFETYscan contract panel)
# [7] = molecular target: T2, Rho Associated Coiled-Coil Containing Protein Kinase 1 (serine-threonine kinase) (ROCK1) (Homo sapiens, UniProt Q13464); assay: SAFETYscan ROCK1 kinase Binding; conditions: Inhibitor mode, 10 μM HU-MCA-13, read-out: Maximal Response
# T2 construct: DiscoverX (KINOMEscan)
# [8] = molecular target: T3, Nuclear Hormone Androgen Receptor (AR) (Homo sapiens, UniProt P10275); assay: SAFETYscan AR Nuclear Hormone Receptor Translocation; format: cell-based; conditions: 10 μM HU-MCA-13
# T3 construct: DiscoverX (SAFETYscan contract panel)
# [9] = molecular target: T4, Nuclear Hormone Glucocorticoid Receptor (GR) (Homo sapiens, UniProt P04150); assay: SAFETYscan GR Nuclear Hormone Receptor Translocation; format: cell-based; conditions: 10 μM HU-MCA-13, read-out: Maximal Response
# T4 construct: DiscoverX (SAFETYscan contract panel)
# Cyclooxygenase 1 (COX 1) = molecular target: T5, Cyclooxygenase 1 (COX 1) (Homo sapiens, UniProt P23219); assay: SAFETYscan COX 1 Enzymatic; format: biochemical; conditions: Inhibitor mode; 10 μM HU-MCA-13; read-out: Maximal Response
# T5 construct: DiscoverX (SAFETYscan contract panel)
# T5 sequence (P23219 24-599): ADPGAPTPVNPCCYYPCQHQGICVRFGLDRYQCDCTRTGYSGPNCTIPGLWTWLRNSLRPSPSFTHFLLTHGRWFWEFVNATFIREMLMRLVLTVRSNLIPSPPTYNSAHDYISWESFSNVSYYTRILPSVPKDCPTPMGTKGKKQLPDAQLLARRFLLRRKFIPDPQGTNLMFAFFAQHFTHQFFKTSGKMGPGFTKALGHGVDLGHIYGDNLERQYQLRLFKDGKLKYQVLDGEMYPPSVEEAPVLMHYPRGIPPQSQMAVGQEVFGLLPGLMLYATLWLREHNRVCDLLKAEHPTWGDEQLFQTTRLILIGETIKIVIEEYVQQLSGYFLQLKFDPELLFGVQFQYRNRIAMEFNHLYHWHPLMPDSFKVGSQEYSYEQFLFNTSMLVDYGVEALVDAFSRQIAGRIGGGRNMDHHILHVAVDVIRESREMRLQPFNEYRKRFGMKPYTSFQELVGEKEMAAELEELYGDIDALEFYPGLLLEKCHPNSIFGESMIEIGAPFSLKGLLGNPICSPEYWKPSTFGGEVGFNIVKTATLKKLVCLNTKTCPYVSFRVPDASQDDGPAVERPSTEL
# Chain of Histamine Receptor H2 (HRH2) (P25021 whole entry): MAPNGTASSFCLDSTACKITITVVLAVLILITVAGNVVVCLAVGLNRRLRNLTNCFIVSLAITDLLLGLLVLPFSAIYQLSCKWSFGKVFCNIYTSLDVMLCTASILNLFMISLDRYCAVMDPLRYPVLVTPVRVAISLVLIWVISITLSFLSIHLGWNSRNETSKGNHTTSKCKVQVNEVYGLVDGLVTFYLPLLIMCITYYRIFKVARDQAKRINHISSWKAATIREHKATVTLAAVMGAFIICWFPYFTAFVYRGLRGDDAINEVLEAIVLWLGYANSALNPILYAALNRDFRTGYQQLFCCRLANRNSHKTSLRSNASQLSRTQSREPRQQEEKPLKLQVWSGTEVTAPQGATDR
# Chain of Cannabinoid Receptor 1 (CNR1) (P21554 whole entry): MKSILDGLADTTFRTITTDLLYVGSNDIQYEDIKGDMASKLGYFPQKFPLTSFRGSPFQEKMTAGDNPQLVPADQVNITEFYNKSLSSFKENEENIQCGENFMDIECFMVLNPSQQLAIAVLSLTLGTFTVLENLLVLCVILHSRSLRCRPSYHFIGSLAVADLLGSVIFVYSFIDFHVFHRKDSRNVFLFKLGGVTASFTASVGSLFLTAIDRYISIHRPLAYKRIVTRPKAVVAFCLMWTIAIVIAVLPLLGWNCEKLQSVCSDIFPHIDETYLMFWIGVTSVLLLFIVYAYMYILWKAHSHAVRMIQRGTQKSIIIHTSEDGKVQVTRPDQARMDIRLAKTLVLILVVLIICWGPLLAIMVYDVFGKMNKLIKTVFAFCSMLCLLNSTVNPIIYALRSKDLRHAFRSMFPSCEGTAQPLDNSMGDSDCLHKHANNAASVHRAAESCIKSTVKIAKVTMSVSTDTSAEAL
# Chain of Cannabinoid Receptor 2 (CNR2) (P34972 whole entry): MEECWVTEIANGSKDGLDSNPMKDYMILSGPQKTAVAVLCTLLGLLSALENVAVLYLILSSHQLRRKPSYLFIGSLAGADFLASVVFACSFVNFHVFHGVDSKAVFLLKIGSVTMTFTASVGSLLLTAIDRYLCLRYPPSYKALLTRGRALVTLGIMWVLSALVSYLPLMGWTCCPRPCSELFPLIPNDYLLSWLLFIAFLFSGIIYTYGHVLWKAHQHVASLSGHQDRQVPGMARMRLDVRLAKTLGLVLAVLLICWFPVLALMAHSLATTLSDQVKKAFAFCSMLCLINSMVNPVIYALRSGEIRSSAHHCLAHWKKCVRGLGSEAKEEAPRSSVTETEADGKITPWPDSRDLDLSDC
# T3 sequence (P10275 whole entry): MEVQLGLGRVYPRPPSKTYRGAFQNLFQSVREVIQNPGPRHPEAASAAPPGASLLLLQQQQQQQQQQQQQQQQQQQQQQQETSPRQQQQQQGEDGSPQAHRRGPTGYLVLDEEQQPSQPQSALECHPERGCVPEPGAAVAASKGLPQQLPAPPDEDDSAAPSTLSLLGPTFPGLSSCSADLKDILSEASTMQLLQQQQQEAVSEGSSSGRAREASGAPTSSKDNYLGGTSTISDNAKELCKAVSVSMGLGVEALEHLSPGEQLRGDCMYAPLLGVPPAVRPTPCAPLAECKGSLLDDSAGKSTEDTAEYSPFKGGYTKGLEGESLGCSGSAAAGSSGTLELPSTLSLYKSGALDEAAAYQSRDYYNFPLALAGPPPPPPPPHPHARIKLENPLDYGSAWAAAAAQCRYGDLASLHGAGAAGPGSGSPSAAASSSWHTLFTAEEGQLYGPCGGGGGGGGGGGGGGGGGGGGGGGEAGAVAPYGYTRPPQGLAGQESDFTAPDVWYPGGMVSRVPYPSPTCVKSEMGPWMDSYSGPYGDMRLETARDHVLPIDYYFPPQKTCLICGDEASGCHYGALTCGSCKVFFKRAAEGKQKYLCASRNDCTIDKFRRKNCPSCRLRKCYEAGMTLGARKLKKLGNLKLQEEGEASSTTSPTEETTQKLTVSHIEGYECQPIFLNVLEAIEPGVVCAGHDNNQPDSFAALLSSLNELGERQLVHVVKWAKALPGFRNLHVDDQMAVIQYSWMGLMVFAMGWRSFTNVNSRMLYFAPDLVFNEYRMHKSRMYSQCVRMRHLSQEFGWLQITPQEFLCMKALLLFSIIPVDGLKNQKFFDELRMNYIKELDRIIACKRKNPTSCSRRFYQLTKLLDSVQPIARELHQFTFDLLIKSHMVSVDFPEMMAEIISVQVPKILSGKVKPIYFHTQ
# Chain of Adrenergic Receptor β2 (ADRB2) (P07550 whole entry): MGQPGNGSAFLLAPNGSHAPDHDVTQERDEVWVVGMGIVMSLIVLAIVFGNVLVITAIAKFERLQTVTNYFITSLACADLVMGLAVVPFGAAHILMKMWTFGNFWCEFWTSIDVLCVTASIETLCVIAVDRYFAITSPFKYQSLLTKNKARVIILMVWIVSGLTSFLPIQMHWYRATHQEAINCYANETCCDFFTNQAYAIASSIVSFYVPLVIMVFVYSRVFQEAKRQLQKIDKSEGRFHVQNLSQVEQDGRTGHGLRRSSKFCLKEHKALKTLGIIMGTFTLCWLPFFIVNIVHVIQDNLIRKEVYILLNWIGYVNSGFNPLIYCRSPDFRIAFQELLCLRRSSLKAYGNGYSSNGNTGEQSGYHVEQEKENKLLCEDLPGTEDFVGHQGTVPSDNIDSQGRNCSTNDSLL
# Chain of Adrenergic Receptor α1A (ADRA1A) (P35348 whole entry): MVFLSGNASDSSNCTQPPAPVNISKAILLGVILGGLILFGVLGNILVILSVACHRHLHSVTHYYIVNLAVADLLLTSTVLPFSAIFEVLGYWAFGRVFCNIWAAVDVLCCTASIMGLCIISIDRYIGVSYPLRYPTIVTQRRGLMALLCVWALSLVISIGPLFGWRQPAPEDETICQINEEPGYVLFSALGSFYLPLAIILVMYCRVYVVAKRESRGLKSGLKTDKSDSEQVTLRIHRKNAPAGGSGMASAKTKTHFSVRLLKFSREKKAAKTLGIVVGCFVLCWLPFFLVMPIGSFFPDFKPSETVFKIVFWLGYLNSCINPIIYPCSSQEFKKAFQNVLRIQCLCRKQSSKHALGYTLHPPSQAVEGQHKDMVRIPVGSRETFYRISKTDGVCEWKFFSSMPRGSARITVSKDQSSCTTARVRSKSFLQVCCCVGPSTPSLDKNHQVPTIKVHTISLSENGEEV
# T4 sequence (P04150 whole entry): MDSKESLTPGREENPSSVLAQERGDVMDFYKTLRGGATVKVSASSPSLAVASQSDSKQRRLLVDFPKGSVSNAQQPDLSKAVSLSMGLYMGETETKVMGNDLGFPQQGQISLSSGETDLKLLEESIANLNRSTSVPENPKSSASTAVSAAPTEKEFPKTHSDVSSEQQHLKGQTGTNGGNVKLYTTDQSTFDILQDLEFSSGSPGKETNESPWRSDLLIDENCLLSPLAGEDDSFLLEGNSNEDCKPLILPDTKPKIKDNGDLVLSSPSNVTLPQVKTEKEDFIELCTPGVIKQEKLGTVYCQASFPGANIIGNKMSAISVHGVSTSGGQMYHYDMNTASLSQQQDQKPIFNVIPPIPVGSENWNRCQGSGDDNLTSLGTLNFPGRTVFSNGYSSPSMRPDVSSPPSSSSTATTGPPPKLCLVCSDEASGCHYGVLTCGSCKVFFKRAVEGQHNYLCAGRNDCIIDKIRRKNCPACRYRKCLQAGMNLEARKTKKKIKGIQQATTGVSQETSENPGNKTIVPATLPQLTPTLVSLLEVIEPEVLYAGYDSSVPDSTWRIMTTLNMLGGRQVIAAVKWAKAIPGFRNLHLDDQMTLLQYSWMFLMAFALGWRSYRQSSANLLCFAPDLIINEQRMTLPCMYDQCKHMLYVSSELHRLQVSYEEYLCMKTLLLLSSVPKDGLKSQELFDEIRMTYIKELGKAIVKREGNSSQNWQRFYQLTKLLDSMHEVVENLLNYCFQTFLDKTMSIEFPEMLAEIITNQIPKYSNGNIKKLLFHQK
structure (smiles),measurement,setting,value
C=CCC1CCC[C@@H](CCC(=O)O)C1=C (stereo partly shown) [Compound 13],Neurotropic effect (mean ± SE) Seven Days Df,"PC12 cells; PC12 cells, seven days of treatment, Df = fractal dimension of neurite outgrowth",0.45 ± 0.01
same,Neurotropic effect (mean ± SE) Two Days Df,"PC12 cells; PC12 cells, two days of treatment, Df = fractal dimension of neurite outgrowth",0.39 ± 0.01
same,Neurotropic effect Seven Days NGF (%),"PC12 cells; seven days, relative to NGF 50 ng/ml",97.8%
same,Neurotropic effect Two Days NGF (%),"PC12 cells; two days, relative to NGF 50 ng/ml",84.8%
same,neurotropic activity (in words),PC12 cells; after seven days of treatment,significant neurotropic activity
same,inducing fast neurite outgrowth (in words),PC12 cells; after two days of treatment,most active
same,kidney (creatinine and blood urea nitrogen) functions,male C57BL/6 mice; 24 hours after 250 mg/kg iv,normal
same,"liver (ALP, AST, ALT) functions",male C57BL/6 mice; 24 hours after 250 mg/kg iv,normal
same,bilirubin concentration,male C57BL/6 mice; in both control and HU-MCA-13-injected mice,some fluctuation
same,"blood count, electrolytes, coagulation parameters","male C57BL/6 mice; vs DMSO 1% control, 24 hours after 250 mg/kg iv",No difference
same,Emax,[1]; Agonist mode,1.12%
same,Emax,[1]; Antagonist mode,3.06%
same,Emax,[2]; Agonist mode,1.29%
same,Emax,[2]; Antagonist mode,8.23%
same,Maximal Response,[3]; Agonist mode,50.22%
same,Emax,[3]; Agonist mode,50.1%
same,Emax,[3]; Antagonist mode,0.57%
same,Maximal Response,[4]; Agonist mode,49.59%
same,Emax,[4]; Agonist mode,49.6%
same,Emax,[4]; Antagonist mode,4.11%
same,Emax,[5]; Agonist mode,1.78%
same,Maximal Response,[5]; Antagonist mode,26.94%
same,Emax,[5]; Antagonist mode,26.9%
same,Emax,[6]; Blocker mode,0.55%
same,Emax,[6]; Opener mode,0%
same,Emax,[7],21.6%
same,Emax,"[8]; Antagonist mode, read-out: Maximal Response",5.27%
same,Emax,"[8]; read-out: Maximal Response, Agonist mode",0%
same,Emax,[9]; Agonist mode,0%
same,Emax,[9]; Antagonist mode,2.28%
same,Emax,Cyclooxygenase 1 (COX 1),25%
